Test results taken from ChEMBL document CHEMBL2029292, “Identification of novel adenosine A(2A) receptor antagonists by virtual screening” (J Med Chem, 2012).

Columns and labels:
[1] = target: Adenosine receptor A2a (Homo sapiens, UniProt P29274); assay: Displacement of [3H]ZM241385 from human A2A receptor expressed in HEK293 cells after 1 hr by liquid scintillation counting; format: cell-based
[2] = tested on: HEK293; assay: Selectivity ratio of Ki for human A1 receptor expressed in CHO cells to Ki for human A2A receptor expressed in HEK293 cells; format: cell-based

Adenosine receptor A2a, sequence (P29274 whole entry): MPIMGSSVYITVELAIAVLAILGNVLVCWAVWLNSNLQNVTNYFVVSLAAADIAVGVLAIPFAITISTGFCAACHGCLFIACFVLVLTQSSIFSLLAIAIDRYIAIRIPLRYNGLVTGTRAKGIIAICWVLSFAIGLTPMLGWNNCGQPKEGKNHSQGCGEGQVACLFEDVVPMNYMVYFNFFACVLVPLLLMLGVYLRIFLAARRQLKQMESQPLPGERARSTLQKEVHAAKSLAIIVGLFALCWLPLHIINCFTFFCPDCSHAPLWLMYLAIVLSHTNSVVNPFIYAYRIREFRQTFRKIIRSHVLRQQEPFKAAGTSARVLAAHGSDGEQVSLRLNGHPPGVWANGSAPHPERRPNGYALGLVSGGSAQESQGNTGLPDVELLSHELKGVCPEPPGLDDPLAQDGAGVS

Row | Compound | Ki [1] [nM] | Ratio Ki [2]
1 | Nc1cccc(CC2SC(=O)NC2=O)c1 (stereo unspecified) | 7080 | –
2 | NC(c1csc(Nc2nncc3ccccc23)n1)c1ccccc1Cl (stereo unspecified) | 2400 | –
3 | Cc1ccsc1/C=C/c1nc(N)nc(-c2ccccc2O)n1 | 3.47 | 9.5
4 | COC1CCN(c2cccc(-c3nc(N)nc(-c4ccccc4O)n3)c2)CC1 | 1.58 | 19
5 | CC(=O)Oc1cc(C)c2c(=O)c(-c3nc(C)cs3)coc2c1 | 33.9 | 13
6 | CC1CC(c2ccccc2)n2nc(N3C(=O)C4CC=CCC4C3=O)nc2N1 (stereo unspecified) | 2000 | –
7 | COCCN1C(=O)c2[nH]nc(-c3ccccc3O)c2C1c1ccc(F)cc1 (stereo unspecified) | 1230 | –
8 | Cc1csc(-c2coc3cc(OCC(=O)O)cc(C)c3c2=O)n1 | 2240 | –
9 | O=C(c1ccc(F)cc1)c1c[nH]c(C(=O)NCCCn2ccnc2)c1 | 4680 | –
10 | CSc1nc2nc3c(c(O)n2n1)CN(Cc1ccccc1)CC3 | 708 | –
11 | CN1CCN(C(=O)c2cccc(-c3nc(N)nc(-c4ccccc4O)n3)c2)CC1 | 1.02 | 59
12 | Cc1cc(O)c(C(C)C)cc1N=C1CSC(=O)N1 | 1780 | –
13 | CC(C)c1nc(N)nc(-c2ccccc2O)n1 | 12.3 | 37
14 | CCc1cc2c(=O)c(-c3nc(C)cs3)coc2cc1OCC(=O)OC(C)C | 15.1 | > 100
15 | COc1ccc(N2CC(C(=O)NC(Cc3ccccc3)C(=O)O)CC2=O)cc1 (stereo unspecified) | 2950 | –
